Data as given in US8481551B2, “Gyrase and topoisomerase IV inhibitors” (Vertex Pharmaceuticals Incorporated, priority 2011, dated 2013).
Structures can show the parent of a compound that is named as a salt.

Legend:
Bacillus subtilis = test: Gyrase MIC, microdilution broth method (Protocol 1); assay type: cell-based
[1] = system: Bacteroides and Parabacter spp.; test: Gyrase MIC, agar dilution method (Protocol 3); assay type: cell-based; conditions: 26 isolates tested
[2] = system: β-haemolytic streptococci (Groups A, B, C and G); test: Gyrase MIC, microdilution broth method (Protocol 1); assay type: cell-based; conditions: 28 isolates tested
M. tuberculosis = test: MIC determination procedure for Mycobacterium species (Protocol 4); assay type: cell-based
Clostridium perfringens = test: microbe, parasite or virus in culture; assay type: cell-based
M. abscessus = test: MIC determination procedure for Mycobacterium species (Protocol 4); assay type: cell-based; conditions: Mycobacteroides abscessus
M. kansasii = test: as above; assay type: cell-based
[3] = system: Stenotrophomonas maltophilia; test: Gyrase MIC against Gram negatives, microdilution broth method (Protocol 2); assay type: cell-based
S. aureus (ATCC 29213) = test: Mouse S. aureus kidney infection model; assay type: in vivo, CD-1 mice
Protocol: Animals: female CD-1 mice (8-10 weeks of age; 6/group), were obtained from Charles River Laboratories and were housed and maintained in accordance with the Guide to the Care and Use of Experimental Animals. Methicillin-sensitive S. aureus (MSSA) strain ATCC 29213 was obtained from the American Type Culture Collection. To prepare stocks for animal studies S. aureus was plated on Mueller Hinton Agar plates and incubated at 37° C. overnight. 3-4 colonies from the plate were used to inoculate 5 mL Mueller Hinton Broth (MHB) that was incubated for 8 hours at 37° C. with shaking at 300 RPM. The 5 mL 8-hour culture was diluted 20-fold into 100 mL and incubated overnight (12-14 hours). The bacteria were pelleted for 20 minutes at 3000× and washed twice with Phosphate-Buffered Saline (PBS) containing 0.5% Bovine Serum Albumin (BSA). Aliquots (1 mL) containing ˜1×10^10 cfu in PBS/20% Glycerol were frozen and stored at −80° C. until the day of use. Stock titers were confirmed by serial dilution and plating on Mueller Hinton agar plates. Prior to inoculation, bacterial stocks were thawed and washed once with PBS/BSA. The stocks were then diluted with PBS/BSA to a final concentration of 1×10^9 cfu/mL to give an inoculum of approximately 1-2×10^8 cfu per mouse in a volume of 100 uL. […] Injections were given intravenously via the tail vein using a sterile 30 gauge needle. Upon completion of the mouse infections, the bacterial stocks used to challenge the mice were plated and counted to verify the concentration of the inocula. […] Fisher Scientific). During collection and homogenization all of the samples were kept on ice and the homogenizer was washed thoroughly and sterilized between each sample. Homogenates were serially diluted in sterile PBS/BSA and plated on MH agar to determine bacterial counts per pair of kidneys. CD-1 mice (6/group) were challenged IV with S. aureus (ATCC 29213) at 2×10^8 cfu/mouse. […] The 30-minute and 6-hour treatment groups were treated once, while the 24-hour group received a second treatment 10 hours after the first dose. […] Burdens from pairs of kidneys for each mouse and the median for each group of mice were calculated. CD-1 mice (6/group) were challenged IV with S. aureus (ATCC 29213) at 2×10^8 cfu/mouse. After 2 hours a single group of mice (Early Control (EC)) was euthanized and the kidneys harvested, homogenized and plated to quantitate S. aureus burdens. The additional groups of infected mice were treated via oral gavage with Vehicle at 10 ml/kg (10% VitE TPGS; […] After 24 hours the groups of treated mice were euthanized and the kidneys harvested, homogenized and plated to quantitate S. aureus burdens. Burdens from pairs of kidneys for each mouse and the median for each group of mice were summarized. CD-1 mice (8/group) were challenged IV with S. aureus (ATCC 29213) at 2×10^8 cfu/mouse. After 2 hours a single group of mice (Early Control (EC)) was euthanized and the kidneys harvested, homogenized and plated to quantitate S. aureus burdens. The additional groups of infected mice were treated via oral gavage with Vehicle at 10 ml/kg (Water; […] After 24 hours the groups of treated mice were euthanized and the kidneys harvested, homogenized and plated to quantitate S. aureus burdens. Burdens from pairs of kidneys for each mouse and the median for each group of mice were summarized.

[4] = Conversion of Compound W to Compound 23 in liver S9 fractions; assay type: in vitro ADME; conditions: hepatic and intestinal S9 fractions from rats, dogs, monkeys and humans
Protocol: The incubations were done for 0, 5, 10, 15, 30, 45 or 60 minutes. The formation of Compound 23 was quantified by LC/MS-MS and data were fitted to the Michaelis Menten equation.

S. aureus TopoIV enzyme = S. aureus TopoIV enzyme (Staphylococcus aureus, UniProt P0C1S7); test: DNA Topo IV ATPase assay; assay type: biochemical; conditions: 64 nM enzyme, 30° C., Morrison Equation fit
Chain of S. aureus TopoIV enzyme (P0C1S7 whole entry): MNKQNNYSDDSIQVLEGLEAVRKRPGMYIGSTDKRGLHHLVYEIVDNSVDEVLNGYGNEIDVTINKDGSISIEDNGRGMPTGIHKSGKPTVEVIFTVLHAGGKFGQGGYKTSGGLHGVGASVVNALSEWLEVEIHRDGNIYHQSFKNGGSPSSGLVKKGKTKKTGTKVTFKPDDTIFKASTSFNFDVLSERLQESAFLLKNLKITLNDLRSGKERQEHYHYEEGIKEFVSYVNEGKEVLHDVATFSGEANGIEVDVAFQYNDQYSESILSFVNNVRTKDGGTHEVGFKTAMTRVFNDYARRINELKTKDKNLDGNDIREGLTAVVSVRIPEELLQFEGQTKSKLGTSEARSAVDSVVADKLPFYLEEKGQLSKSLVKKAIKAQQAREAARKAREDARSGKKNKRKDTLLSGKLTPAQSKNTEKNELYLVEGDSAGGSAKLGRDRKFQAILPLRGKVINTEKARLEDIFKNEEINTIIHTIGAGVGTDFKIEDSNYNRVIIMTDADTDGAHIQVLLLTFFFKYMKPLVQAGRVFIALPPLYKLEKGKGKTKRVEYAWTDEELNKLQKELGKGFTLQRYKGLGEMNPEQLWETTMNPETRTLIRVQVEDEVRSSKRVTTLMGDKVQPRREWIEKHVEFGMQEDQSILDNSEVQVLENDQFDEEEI
Chain of S. aureus TopoIV enzyme (P0C1U9 whole entry partner): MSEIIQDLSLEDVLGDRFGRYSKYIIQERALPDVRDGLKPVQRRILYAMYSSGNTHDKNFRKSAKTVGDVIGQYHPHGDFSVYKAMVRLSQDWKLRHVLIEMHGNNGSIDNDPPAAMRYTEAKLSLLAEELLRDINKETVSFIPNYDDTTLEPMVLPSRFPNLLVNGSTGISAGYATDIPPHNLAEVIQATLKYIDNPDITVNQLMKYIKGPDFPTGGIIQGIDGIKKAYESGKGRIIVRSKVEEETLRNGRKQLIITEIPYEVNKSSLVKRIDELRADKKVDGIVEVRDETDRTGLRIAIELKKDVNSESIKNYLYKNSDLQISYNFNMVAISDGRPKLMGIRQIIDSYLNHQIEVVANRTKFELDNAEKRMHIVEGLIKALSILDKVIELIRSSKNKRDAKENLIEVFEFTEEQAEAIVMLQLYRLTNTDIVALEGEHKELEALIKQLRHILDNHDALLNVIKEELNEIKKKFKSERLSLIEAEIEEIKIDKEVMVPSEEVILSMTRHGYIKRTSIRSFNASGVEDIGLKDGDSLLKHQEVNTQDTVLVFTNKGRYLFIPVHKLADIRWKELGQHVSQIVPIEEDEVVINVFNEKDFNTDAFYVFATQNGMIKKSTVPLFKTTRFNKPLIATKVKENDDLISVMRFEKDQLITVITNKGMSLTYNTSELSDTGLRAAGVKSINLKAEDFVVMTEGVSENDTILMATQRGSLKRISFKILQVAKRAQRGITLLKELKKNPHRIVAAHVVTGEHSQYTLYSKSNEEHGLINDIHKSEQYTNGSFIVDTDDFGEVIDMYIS

[5] = ATCC6051, Bacillus subtilis (168) ATCC 6051
[6] = ATCC6638, Bacillus subtilis ATCC 6638
[7] = 10 mg/kg oral gavage, second treatment 10 hours after first, 24 Hours
[8] = 10 mg/kg oral gavage, treated once, 6 Hours
[9] = 30 mg/kg oral gavage, second treatment 10 hours after first, 24 Hours
[10] = 30 mg/kg oral gavage, treated once, 6 Hours
[11] = 30 mg/kg oral gavage, treated once, 30 Minutes
[12] = 100 mg/kg oral gavage, second treatment 10 hours after first, 24 Hours
[13] = 100 mg/kg oral gavage, treated once, 6 Hours
[14] = 100 mg/kg oral gavage, treated once, 30 Minutes
[15] = single oral dose 10 mg/kg, after 24 hours
[16] = single oral dose 30 mg/kg, after 24 hours
[17] = single oral dose 60 mg/kg, after 24 hours
[18] = single oral dose 100 mg/kg, after 24 hours
[19] = single oral dose 16 (10) mg/kg Compound W, after 24 hours
[20] = single oral dose 49 (30) mg/kg Compound W, after 24 hours
[21] = single oral dose 99 (60) mg/kg Compound W, after 24 hours
[22] = single oral dose 166 (100) mg/kg Compound W, after 24 hours

## CCNC(=O)Nc1nc2cc(-c3cnc(C(C)(C)O)nc3)cc([C@H]3CCCO3)c2[nH]1 [Compound 13, methanesulfonic acid salt of 1-ethyl-3-[5-[2-(1-hydroxy-1-methyl-ethyl)pyrimidin-5-yl]-7-[(2R)-tetrahydrofuran-2-yl]-1H-benzimidazol-2-yl]urea]
Bacillus subtilis; [5]
  MIC: > 8 µg/mL
Bacillus subtilis; [6]
  MIC: > 8 µg/mL
[1]
  MIC90: > 16 µg/mL
[2]
  MIC90: 0.25 µg/mL
  MIC Range: 0.06 to 0.5 µg/mL
M. tuberculosis; ATCC 25618 / H37Rv, M. tuberculosis H37Rv ATCC 25618
  MIC: 0.37 µg/mL
M. tuberculosis; ATCC 35801 / ERDMAN, M. tuberculosis Erdman ATCC 35801
  MIC: 0.25 µg/mL
Clostridium perfringens
  MIC90: 0.5 µg/mL

## CCNC(=O)Nc1nc2cc(-c3cnc(C(C)(C)O)nc3)c(F)c([C@H]3CCCO3)c2[nH]1 [Compound 23A, methanesulfonic acid salt of 1-ethyl-3-[6-fluoro-5-[2-(1-hydroxy-1-methyl-ethyl)pyrimidin-5-yl]-7-[(2R)-tetrahydrofuran-2-yl]-1H-benzimidazol-2-yl]urea]
Bacillus subtilis; [5]
  MIC: 4 µg/mL
Bacillus subtilis; [6]
  MIC: 2 µg/mL
[1]
  MIC90: 16 µg/mL
  MIC Range: 0.12 to 16 µg/mL
M. abscessus; M. abscessus BB1
  MIC: 2 µg/mL
M. abscessus; M. abscessus BB2
  MIC: 1 µg/mL
M. abscessus; M. abscessus BB3
  MIC: 0.5 µg/mL
M. abscessus; M. abscessus BB4
  MIC: 2 µg/mL
M. abscessus; M. abscessus BB5
  MIC: 0.5 µg/mL
M. abscessus; M. abscessus BB6
  MIC: 0.5 µg/mL
M. abscessus; M. abscessus BB8
  MIC: 0.5 µg/mL
M. abscessus; M. abscessus LT 949
  MIC: 1 µg/mL
M. abscessus; M. abscessus MC 5812
  MIC: 1 µg/mL
M. abscessus; M. abscessus MC 5901
  MIC: 1 µg/mL
M. abscessus; M. abscessus MC 5908 (second listing, r109)
  MIC: 1 µg/mL
M. abscessus; M. abscessus MC 5922
  MIC: 0.25 µg/mL
M. abscessus; M. abscessus MC 5931
  MIC: 0.5 µg/mL
M. abscessus; M. abscessus MC 5960
  MIC: 0.5 µg/mL
M. abscessus; M. abscessus MC 6005
  MIC: 1 µg/mL
M. abscessus; M. abscessus MC 6025
  MIC: 0.75 µg/mL
M. abscessus; M. abscessus MC 6111
  MIC: 0.5 µg/mL
M. abscessus; M. abscessus MC 6136
  MIC: 0.5 µg/mL
M. abscessus; M. abscessus MC 6142
  MIC: 0.5 µg/mL
M. abscessus; M. abscessus MC 6153
  MIC: 1 µg/mL
M. kansasii; M. kansasii 303
  MIC: 0.03 µg/mL
M. kansasii; M. kansasii 379
  MIC: < 0.015 µg/mL
[3]; ATCCBAA84, Stenotrophomonas maltophilia ATCC BAA-84
  MIC: > 8 µg/mL
[3]; Stenotrophomonas maltophilia ATCC13637
  MIC: > 8 µg/mL
Clostridium perfringens
  MIC90: 0.5 µg/mL
Clostridium perfringens; 12 isolates tested, Protocol 3
  MIC Range: 0.12 to 0.5 µg/mL
S. aureus (ATCC 29213); 10 mg/kg oral gavage 2 h post challenge, treated once, time of treatment 30 Minutes
  Median Kidney Burden (Log cfu/kidneys): 4.84 Log cfu/kidneys
S. aureus (ATCC 29213); [7]
  Log Difference vs. Vehicle Control: −1.87
  Median Kidney Burden (Log cfu/kidneys): 4.48 Log cfu/kidneys
S. aureus (ATCC 29213); [8]
  Log Difference vs. Vehicle Control: −0.37
  Median Kidney Burden (Log cfu/kidneys): 4.84 Log cfu/kidneys
S. aureus (ATCC 29213); 10 mg/kg oral gavage, treated once, 30 Minutes
  Log Difference vs. Vehicle Control: −0.14
S. aureus (ATCC 29213); [9]
  Log Difference vs. Vehicle Control: −2.90
  Median Kidney Burden (Log cfu/kidneys): 3.44 Log cfu/kidneys
S. aureus (ATCC 29213); [10]
  Log Difference vs. Vehicle Control: −0.59
  Median Kidney Burden (Log cfu/kidneys): 4.62 Log cfu/kidneys
S. aureus (ATCC 29213); [11]
  Log Difference vs. Vehicle Control: 0.00
  Median Kidney Burden (Log cfu/kidneys): 4.97 Log cfu/kidneys
S. aureus (ATCC 29213); [12]
  Log Difference vs. Vehicle Control: −2.86
  Median Kidney Burden (Log cfu/kidneys): 3.49 Log cfu/kidneys
S. aureus (ATCC 29213); [13]
  Log Difference vs. Vehicle Control: −0.66
  Median Kidney Burden (Log cfu/kidneys): 4.55 Log cfu/kidneys
S. aureus (ATCC 29213); [14]
  Log Difference vs. Vehicle Control: −0.08
  Median Kidney Burden (Log cfu/kidneys): 4.89 Log cfu/kidneys
S. aureus (ATCC 29213); 30 minutes after the initial treatment, 10, 30, 100 mg/kg oral
  kidney burden, compound- versus vehicle-treated mice: no difference in kidney burden
S. aureus (ATCC 29213); 6 hours after the first dose, 30 and 100 mg/kg oral
  log reduction versus the 30 minute early control: 0.3-0.4 log
S. aureus (ATCC 29213); 6 hours after the first dose, all compound treatments (10, 30, 100 mg/kg oral)
  reduction of bacterial burdens in the kidneys versus time-matched vehicle control: 0.4-0.6 logs
S. aureus (ATCC 29213); 24 hours, 10 mg/kg BID oral
  log reduction versus the 24-hour vehicle-treated control: 1.8 log
S. aureus (ATCC 29213); 24 hours, 30 and 100 mg/kg BID oral
  log reduction versus the 24-hour vehicle-treated control: 2.8-2.9 log
S. aureus (ATCC 29213); 24 hours, 30 and 100 mg/kg oral
  log reductions versus the 30-minute vehicle-treated control: approximately 1.5 log
S. aureus (ATCC 29213); single oral dose 10 mg/kg 2 h post challenge, after 24 hours
  Median Kidney Burden (Log cfu/kidneys): 4.73 Log cfu/kidneys
S. aureus (ATCC 29213); [15]
  Log Reduction vs. Early Control: 0.00
  Log Reduction vs. Late Control: −1.90
  log reductions versus vehicle control: 1.9 log
S. aureus (ATCC 29213); [16]
  Log Reduction vs. Early Control: −0.40
  Log Reduction vs. Late Control: −2.31
  Median Kidney Burden (Log cfu/kidneys): 4.32 Log cfu/kidneys
  log reductions versus vehicle control: 2.3 log
S. aureus (ATCC 29213); [17]
  Log Reduction vs. Early Control: −1.21
  Log Reduction vs. Late Control: −3.11
  Median Kidney Burden (Log cfu/kidneys): 3.52 Log cfu/kidneys
  log reductions versus vehicle control: 3.1 log
S. aureus (ATCC 29213); [18]
  Log Reduction vs. Early Control: −1.42
  Log Reduction vs. Late Control: −3.32
  Median Kidney Burden (Log cfu/kidneys): 3.31 Log cfu/kidneys
  log reductions versus vehicle control: 3.3 log
S. aureus (ATCC 29213); single oral doses of 60 and 100 mg/kg, after 24 hours
  reduction of bacterial burdens versus the early control: 1.2-1.4 logs

## CCNC(=O)Nc1nc2cc(-c3cnc(C(C)(C)OP(=O)([O-])[O-])nc3)c(F)c([C@H]3CCCO3)c2[nH]1.[Na+].[Na+] [Compound W, disodium (R)-2-(5-(2-(3-ethylureido)-6-fluoro-7-(tetrahydrofuran-2-yl)-1H-benzo[d]imidazol-5-yl)pyrimidin-2-yl)propan-2-yl phosphate]
[4]
  conversion of Compound W to Compound 23: rapidly converts to Compound 23
S. aureus TopoIV enzyme
  IC50: 150 nM
  Ki: 30 nM
S. aureus (ATCC 29213); single oral dose 16 (10) mg/kg Compound W (dose equivalent in brackets), after 24 hours
  Median Kidney Burden (Log10 CFU/kidneys): 3.69 Log10 CFU/kidneys
S. aureus (ATCC 29213); [19]
  Log10 Difference vs. Early Control: −0.71
  Log10 Difference vs. Late Control: −2.25
S. aureus (ATCC 29213); [20]
  Log10 Difference vs. Early Control: −1.18
  Log10 Difference vs. Late Control: −2.72
  Median Kidney Burden (Log10 CFU/kidneys): 3.22 Log10 CFU/kidneys
S. aureus (ATCC 29213); [21]
  Log10 Difference vs. Early Control: −1.08
  Log10 Difference vs. Late Control: −2.62
  Median Kidney Burden (Log10 CFU/kidneys): 3.32 Log10 CFU/kidneys
S. aureus (ATCC 29213); [22]
  Log10 Difference vs. Early Control: −1.46
  Log10 Difference vs. Late Control: −3.00
  Median Kidney Burden (Log10 CFU/kidneys): 2.94 Log10 CFU/kidneys
S. aureus (ATCC 29213); single oral doses of 16, 49, 99 and 166 mg/kg Compound W, after 24 hours
  reduction of bacterial burdens versus the early control: 0.7-1.5 logs
